Source: patent US6998479B1, “Derivatives of cyclodextrins” (priority 1998, dated 2006)

Key:
[1] = Reaction of aminooxy-CD with 4-thiouracil followed by UV spectra; conditions: 1 mM 4-thiouracil, 0.1 M compound, 20° C., neutral pH (7.0), 1 mm path
Description: FIG. 1a. Time course of the UV spectra (optical path length 1 mm) of a reaction mixture containing 1 mM 4-thiouracil in 100 mM 4-aminooxy-2-butenyl-beta-cyclodextrin (I; see Example I.2) at pH 7.0. Incubation at 20° C. is indicated as hours.
FIG. 1b. Time course of the UV spectra (optical path length 1 mm) of a reaction mixture containing 1 mM 4-thiouracil and 100 mM 1-aminooxybutane at 20° C. at pH 7.00. Incubation time (hours) is indicated.
A 1 mM solution of 4-thiouracil (Lacheama, Brno, Czechoslovakia) was incubated at 20° C. within a 0.1 M solution of 4-aminooxy-2-butenyl-β-CD (I) at neutral pH. The UV-spectra were recorded at certain time intervals using cuvettes of 1 mm optical path length (FIG. 1a). This reaction was compared with the reaction of 4-thiouracil with 1-aminooxybutane under the same reaction conditions (FIG. 1b).

[2] = Reaction of aminooxy-CD with 6-mercaptopurine riboside followed by UV spectra; conditions: 1 mM 6-mercaptopurine riboside, 0.1 M compound, 20° C., pH 7.00, 1 mm path
Description: FIG. 2a. Time course of the UV spectra (optical path length 1 mm) of a reaction mixture containing 1 mM 6-mercaptopurineriboside with 100 mM 4-aminooxy-2-butenyl-beta-cyclodextrin (see Example I.2). Incubation time (hours) is indicated.
FIG. 2b. Time course of the UV spectra (optical path length b 1 mm) of a reaction mixture containing 1 mM 6-mercaptopurineriboside with 100 mM 1-aminooxybutane at pH 7.00. Incubation time (hours) is indicated.
A 1 mM solution of 6-mercaptopurine riboside (Sigma Chem. Co., USA) was incubated at 20° C. within 0.1 M of 4-aminooxy-2-butenyl-β-CD (I).

4-aminooxy-2-butenyl-beta-cyclodextrin
velocity of reaction with 4-thiouracil compared with 1-aminooxybutane [1]: significantly higher velocity of reaction
reaction rate with 6-mercaptopurine riboside compared with 1-aminooxybutane [2]: drastically higher reaction rates
